{
  "source": "patent US8217049B2",
  "about": "“Use of type V phosphodiesterase inhibitors in the treatment of exercise induced pulmonary hemorrhage in the equine” (ANOxA Corp., priority 2006, dated 2012)",
  "key": {"[1]": {"system": "exercise induced pulmonary hemorrhage (EIPH); blood in the trachea", "assay": "Endoscopic EIPH scoring (Pascoe et al. 1985) after maximum exercise, placebo-controlled crossover", "assay_type": "in vivo", "design": "key: 0: Zero indicates an absence of EIPH; 1 to 4 indicated increasing amounts of blood observed endoscopically in the trachea", "settings": "10 μg/kg of E4021 prior to maximum exercise (>1,000 meters); videoendoscopy about 60 to 90 minutes after exercise; one value per individual horse (Horse 1-8) with previous EIPH; sesquihydrate", "experimental": "(§1) Eight horses with previous evidence of EIPH were enrolled in the study. The candidate horses served as their own control and a predetermined rest period (no maximum exercise events) of one week was adhered to prior to initiation of the protocol. On initiation of the trial the subject horse received, prior to maximum exercise, either a dose of 10 μg/kg of weight of E4021 or a placebo. The eight horses were exercised in training/mock racing conditions at maximum intensity for greater than 1,000 meters followed by endoscopic exam/scoring about 60 to 90 minutes after the exercise event. Following exercise, the horses were examined with videoendoscopy for evidence of blood in the trachea about 60 minutes to 90 minutes after maximum exercise. The endoscope was passed to the level of the bifurcation of the trachea (carina) with images recorded on videotape.\nAn objective scoring system (Pascoe et al. 1985) was used to indicate the presence or absence of EIPH, as well as its severity, if present. […] Scoring was done by the veterinarian conducting the examination, then later by another individual using the recorded examination. […]\nThe E4021 was administered from vials containing 50 mg of E4021/30 ml. […] The Pl score was after placebo intervention and the post Tx Score was recorded after administration of E4021. […]"}, "[2]": {"assay": "Untoward effects and systemic hemodynamics in the treated horses", "assay_type": "in vivo, horse", "settings": "eight horses, 10 μg/kg of E4021 prior to maximum exercise", "experimental": "as §1"}},
  "note": "“And” between values parts separate entries of the source, which are not always exact repeats. Equal values may be shown once.",
  "data": [
    {"smiles": "O.O.O.O=C([O-])C1CCN(c2nc(NCc3ccc4c(c3)OCO4)c3cc(Cl)ccc3n2)CC1.O=C([O-])C1CCN(c2nc(NCc3ccc4c(c3)OCO4)c3cc(Cl)ccc3n2)CC1.[Na+].[Na+]", "note": "[E4021]", "values": [
      {"measurement": "Post Tx (EIPH endoscopic score recorded after administration of E4021)", "setting": "[1]", "value": "0 (3×) and 3 and 1 and 2"},
      {"measurement": "Untoward effects", "setting": "[2]", "value": "did not experience any untoward effects"},
      {"measurement": "Systemic hemodynamics (e.g. cardiac output, blood pressure)", "setting": "[2]; versus controls", "value": "remained unchanged from controls"}
    ]}
  ]
}
